Results: patent US20190211099A1, “METHODS AND COMPOSITIONS FOR TREATING CANCER WITH SIGLEC-9 ACTIVITY MODULATORS” (KING'S COLLEGE LONDON, priority 2016, published 2019)

Legend:
[1] = tested on: M-CSF macrophages differentiated with LPS and IFNγ; experiment: Differentiation of monocytes into M(LPS+IFNγ) macrophages: CD86 and IL-12; assay type: cell-based, human; conditions: MUC1-ST added at day 1 of the culture
Method: Both the cell phenotype staining and neutralization studies described in the Examples were performed using the following antibodies (all anti-human): Siglec-9 (Biotechne; 191240), Siglec-9 FITC (Biotechne; 191240), Siglec-3 (Biotechne; 6C5/2), Siglec-7 (Biotechne; AF1138), Siglec-3 FITC (BD; P67.6), Siglec-7 PE (Biolegend; 6-434), Siglec-10 PE (Biolegend; 5G6), Siglec-1 (abcam; 7D2), HLA-DR FITC (Beckman Coulter; IM0463U), CD16 FITC (Biolegend; B73.1), CD14 FITC (BD 555397), CD69 PE (Beckman Coulter; IM1943), CD25 FITC (ABX228FITC), CD86 PE (Beckman Coulter; IM2729U), CD40 FITC (BD 555588), CD83 PE (Beckman Coulter; IM2218), CD163 PE (Biolegend; GHI/61), CXCR1 FITC (BD Pharmongen; 551126), CD45 PC5 (Beckman Coulter; IM2653U), CD206 PE (ebioscience; 19.2), PD-L1 PE (Biolegend; 29E.2A3), CD36 (Santa Cruz; H-300), TGFbetaRII (Bio-Techne; AF-241), IL-6Rα (Tocilizumab; Roche. A generous gift from Dr. Valerie Corrigall). […] At least 1×10^4 events were evaluated using either Epics XL, (Beckman Coulter) or FACSCalibur (BD Biosciences) flow cytometers. […]
Given that IL-6 and NO are known differentiation modulators (Oosterhoff et al. (2012) ONCOIMMUNOLOGY 1: 649-658; Bogdan (2015) TREND IMMUNOL. 36: 161-178) the effects of MUC1-ST on the differentiation of monocytes into macrophages was assessed. […]

CD8+ T cells = experiment: Co-culture of MUC1-ST educated M-CSF macrophages with CD3/CD28 stimulated autologous T cells; assay type: cell-based, human; conditions: MUC1-ST educated M-CSF macrophages
Method: In addition, primary monocytes were induced to differentiate to macrophages in the presence of MUC1-ST and then co-cultured for 48 hours with CD3/CD28 stimulated autologous CD8+ or CD4+ T cells. T cell proliferation and CD69/CD25 cell surface expression were measured using flow cytometry.

[2] = tested on: indoleamine 2,3-dioxygenase (IDO); experiment: IDO mRNA in monocyte-derived macrophages (qRT-PCR); assay type: cell-based, human; conditions: macrophages differentiated with GM-CSF or M-CSF
isolated monocytes = experiment: Factors released by monocytes after MUC1-ST treatment (protein array, ELISA); assay type: cell-based, human; conditions: 100 μg/10^6 cells MUC1-ST, 48 hours
Method: ELISAs for IL-6, IL-12p70, TGF-β1, PAI-1, M-CSF, EGF, SHP2, phospho-SHP2 (Biotechne) were all carried out as per manufacturer's instructions.
Recombinant MUC1-ST was bound to monocytes and the factors released determined using a protein array as follows. Briefly, isolated monocytes were treated with 100 μg/10^6 cells MUC1-ST for 4 hours at 4° C., washed and incubated at 37° C. for 48 hours in AIM-V serum-free media. Supernatant was taken and cytokine production was assessed using a 102 protein array (Bio-Techne).

Siglec-9 = Siglec-9 (Homo sapiens, UniProt Q9Y336); experiment: Phosphorylation of Siglec-9 (ELISA, phospho immunoreceptor array); assay type: cell-based; conditions: monocytes and macrophages; antibody cross-linked
Method: To determine the intracellular effects of MUC1-ST binding to Siglec-9, the ability of MUC1-ST to induce phosphorylation of the immunoreceptor tyrosine-based inhibitory motif (ITIM) of Siglec-9 thereby inducing intracellular inhibitory signals (Avril et al. (2004) J. IMMUNOL. 173: 6841-6849) was assessed. Without wishing to be bound by theory, it was hypothesized that this was likely occur as the repeated glycans found on MUC1 could be able to crosslink this lectin. To investigate the effects of MUC1-ST on Siglec-9 phosphorylation, monocytes or differentiated M-CSF macrophages were treated with MUC1-ST or cross-linked anti-Siglec-9 antibody at 4° C. for 4 hours or 30 minutes, respectively, and were then brought to 37° C. for 15 minutes, and lysed in the presence of pervanadate. Lysates were assessed for the phosphorylation of Siglec-9 using an ELISA or a 59 phospho immunoreceptor array (Bio-Techne) according to the manufacturer's instructions. For the ELISA, anti-human Siglec-9 was plated overnight (O/N) on plastic before being blocked with 1% BSA in PBS. Clarified supernatant was added and incubated for 2 hours. After incubation with 1 μg/mL biotinylated anti phospho-tyrosine, O.D. at 450 nm was measured after the addition of streptavidin-HRP and substrate.

allogeneic CD8+ T cells = experiment: Co-culture of MUC1-ST treated macrophages with allogeneic CD8+ T cells; assay type: cell-based, human; conditions: macrophages educated with MUC1-ST
Method: Thereafter, the effects of MUC1-ST educated macrophages on T cell function were analyzed. Macrophages treated with MUC1-ST were co-cultured with eFluor® 670 labelled allogeneic CD8+ T cells in the presence of absence of anti-Siglec-9 antibody or isotype control. Indeed, macrophages that had been educated with MUC1-ST were decreased in their ability to stimulate the proliferation of allogeneic CD8 T cells (FIG. 11E). […] (FIG. 11F). This profile of expression and functional activity is indicative of tumor-associated macrophages (TAMs), which play a role in promoting tumor progression (Noy et al. (2014) IMMUNITY 41: 49-61; Sousa et al. (2015) BREAST CANCER RES. 17: 101; Qian et al. (2010) CELL 141: 39-45).

Siglec-9, sequence (Q9Y336 18-463): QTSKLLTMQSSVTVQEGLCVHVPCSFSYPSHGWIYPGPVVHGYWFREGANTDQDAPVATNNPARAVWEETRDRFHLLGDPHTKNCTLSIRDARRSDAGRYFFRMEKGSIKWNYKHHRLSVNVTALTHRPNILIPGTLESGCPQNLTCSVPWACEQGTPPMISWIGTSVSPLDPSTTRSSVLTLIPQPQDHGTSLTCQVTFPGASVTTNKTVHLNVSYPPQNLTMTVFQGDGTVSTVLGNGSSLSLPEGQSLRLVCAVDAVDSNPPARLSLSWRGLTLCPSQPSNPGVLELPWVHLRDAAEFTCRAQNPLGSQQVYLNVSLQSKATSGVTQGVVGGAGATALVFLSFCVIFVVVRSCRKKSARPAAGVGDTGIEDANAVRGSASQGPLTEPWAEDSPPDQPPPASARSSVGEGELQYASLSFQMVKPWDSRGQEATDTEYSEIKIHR

increase in expression of mRNA encoding IDO [2]: 10-25 fold | phosphorylation of Siglec-9 (Siglec-9): inhibited
Substance: NeuAcα2,3Galβ1-3GalNAc linked via a Ser/Thr of MUC1 [MUC1-ST]
levels of CD86 and IL-12 [1]: lower levels | activation of CD8+ T cells (expression of CD25 and CD69) (CD8+ T cells): lower level of activation | proliferation of CD8+ T cells (CD8+ T cells; 48 hours co-culture): significantly inhibited | secretion of factors associated with inflammation and tumor progression (IL-6, M-CSF, PAI-1 validated by ELISA) (isolated monocytes): induced | CD8 IFNγ secretion (allogeneic CD8+ T cells): decreased | ability of macrophages to stimulate proliferation of allogeneic CD8 T cells (allogeneic CD8+ T cells): decreased
